Source: patent US9242970B2 (ACTELION PHARMACEUTICALS LTD., priority 2010, dated 2016)
Like-named read-outs stand apart in the source and are kept apart here.

What was measured:
[1] = target: human orexin-1 receptor (Homo sapiens (Human), UniProt O43613); assay: In vitro assay: intracellular calcium measurements (FLIPR), antagonistic activity; format: cell-based; details: CHO cells, 3 nM orexin-A, marked values are geometric means of n = 2-6, read-out: IC50 OX1
[2] = target: human orexin-2 receptor (Homo sapiens (Human), UniProt O43614); assay: as above; format: cell-based; details: CHO cells, 3 nM orexin-A, marked values are geometric means of n = 2-6, read-out: IC50 OX2
Sequence of human orexin-2 receptor (O43614 whole entry): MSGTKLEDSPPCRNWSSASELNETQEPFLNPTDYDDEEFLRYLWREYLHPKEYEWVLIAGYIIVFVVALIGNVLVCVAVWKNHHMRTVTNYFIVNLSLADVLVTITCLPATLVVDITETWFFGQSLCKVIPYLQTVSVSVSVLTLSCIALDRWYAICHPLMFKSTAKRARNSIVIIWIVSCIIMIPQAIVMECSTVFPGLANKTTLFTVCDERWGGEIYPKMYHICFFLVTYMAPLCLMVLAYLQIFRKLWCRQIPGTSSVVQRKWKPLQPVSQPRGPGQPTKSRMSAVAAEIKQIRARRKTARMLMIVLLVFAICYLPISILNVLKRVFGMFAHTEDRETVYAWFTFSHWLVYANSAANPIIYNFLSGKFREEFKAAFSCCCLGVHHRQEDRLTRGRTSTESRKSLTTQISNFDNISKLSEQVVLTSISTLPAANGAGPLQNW

[3] = compound incubation time of 10 min

Sequence of human orexin-1 receptor (O43613 whole entry): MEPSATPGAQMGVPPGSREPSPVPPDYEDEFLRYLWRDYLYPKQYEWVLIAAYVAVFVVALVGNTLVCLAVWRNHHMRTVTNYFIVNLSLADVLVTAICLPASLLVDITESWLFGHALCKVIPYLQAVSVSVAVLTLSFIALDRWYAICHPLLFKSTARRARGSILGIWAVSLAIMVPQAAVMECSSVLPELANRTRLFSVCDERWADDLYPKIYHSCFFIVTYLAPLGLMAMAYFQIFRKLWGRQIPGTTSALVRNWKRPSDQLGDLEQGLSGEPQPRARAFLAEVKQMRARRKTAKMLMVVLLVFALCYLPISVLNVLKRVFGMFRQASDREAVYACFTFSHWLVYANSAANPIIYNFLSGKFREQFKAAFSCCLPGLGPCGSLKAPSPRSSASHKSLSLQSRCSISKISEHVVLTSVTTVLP

SMILES | IC50 ([1]; compound incubation 120 min) [nM] | IC50 ([2]; compound incubation 120 min) [nM] | IC50 [1, 3] [nM] | IC50 [2, 3] [nM]
COc1cncc(OC)c1C1CCCCC(=O)N1Cc1csc(-c2ccccc2)n1 (centres unmarked) [Example 277, 7-(3,5-dimethoxypyridin-4-yl)-1-((2-phenylthiazol-4-yl)methyl)azepan-2-one] | 214 | 182 | – | –
COc1cncc(OC)c1C1CCCC(=O)N1Cc1cccc(-c2ccccc2)c1 (centres unmarked) [Example 68, 1-([1,1′-biphenyl]-3-ylmethyl)-6-(3,5-dimethoxypyridin-4-yl)piperidin-2-one] | 45 | 31 | – | –
COc1cccc(OC)c1C1CCCC(=O)N1Cc1cccc(-c2ccccn2)c1F (centres unmarked) [Example 37, 6-(2,6-dimethoxyphenyl)-1-(2-fluoro-3-(pyridin-2-yl)benzyl)piperidin-2-one] | 72 | 64 | – | –
COc1ccccc1[C@@H]1C[C@H](Cl)C(=O)N1Cc1ccc(OC(F)(F)F)cc1 (racemic) [Example 298, rac-(3S*,5S*)-3-chloro-5-(2-methoxyphenyl)-1-(4-(trifluoromethoxy)benzyl)pyrrolidin-2-one] | 1630 | 901 | – | –
COc1cccc(OC)c1C1CCCC(=O)N1Cc1ccc2oc3ccccc3c2c1 (centres unmarked) [Example 30, 1-(dibenzo[b,d]furan-2-ylmethyl)-6-(2,6-dimethoxyphenyl)piperidin-2-one] | 2 | 4 | – | –
COc1cccc(OC)c1C1CC(C)C(=O)N1Cc1ccnc(-c2ccccc2)c1 (centres unmarked) [Example 139, 5-(2,6-dimethoxyphenyl)-3-methyl-1-((2-phenylpyridin-4-yl)methyl)pyrrolidin-2-one] | 35 | 172 | – | –
COc1cccc(OC)c1[C@@H]1C[C@@H](OC)C(=O)N1Cc1ccc(OC(F)(F)F)cc1 (racemic) [Example 262, rac-(3R*,5S*)-5-(2,6-dimethoxyphenyl)-3-methoxy-1-(4-(trifluoromethoxy)benzyl)pyrrolidin-2-one] | – | – | 3380 | 6940
CCOc1c(F)cccc1[C@@H]1C[C@H](F)C(=O)N1Cc1ccc(OC(F)(F)F)cc1 (racemic) [Example 331, rac-(3S*,5S*)-5-(2-ethoxy-3-fluorophenyl)-3-fluoro-1-(4-(trifluoromethoxy)benzyl)pyrrolidin-2-one] | 1150 | 434 | – | –
COc1cccc(OC)c1C1CC(C)C(=O)N1Cc1cccc(OC(F)F)n1 (centres unmarked) [Example 201, 1-((6-(difluoromethoxy)pyridin-2-yl)methyl)-5-(2,6-dimethoxyphenyl)-3-methylpyrrolidin-2-one] | – | – | 955 | 192
COc1cccc(OC)c1C1CC(C)(C)C(=O)N1Cc1ccc(OC(F)(F)F)cc1 (centres unmarked) [Example 217, 5-(2,6-dimethoxyphenyl)-3,3-dimethyl-1-(4-(trifluoromethoxy)benzyl)pyrrolidin-2-one] | – | – | 22 | 252
COc1cccc(OC)c1C1CC(C)C(=O)N1Cc1cc2ccccc2n1C (centres unmarked) [Example 388, 5-(2,6-dimethoxyphenyl)-3-methyl-1-((1-methyl-1H-indol-2-yl)methyl)pyrrolidin-2-one] | 83 | 132 | – | –
COc1cccc(OC)c1C1CCC(=O)N1Cc1ccc(Oc2ccccc2)cc1 (centres unmarked) [Example 118, 5-(2,6-dimethoxyphenyl)-1-(4-phenoxybenzyl)pyrrolidin-2-one] | 233 | 58 | – | –
COc1ccc(Cl)c(OC)c1C1CCCC(=O)N1Cc1cccc(-c2csc(C)n2)c1 (centres unmarked) [Example 281, 6-(3-chloro-2,6-dimethoxyphenyl)-1-(3-(2-methylthiazol-4-yl)benzyl)piperidin-2-one] | 42 | 115 | – | –
COc1cccc(OC)c1C1CCCC(=O)N1Cc1ccnc(-c2ccccn2)c1 (centres unmarked) [Example 50, 1-([2,2′-bipyridin]-4-ylmethyl)-6-(2,6-dimethoxyphenyl)piperidin-2-one] | 39 | 119 | – | –
COc1cccc(OC)c1C1CCCCC(=O)N1Cc1ccnc(-c2ccccc2)c1 (centres unmarked) [Example 81, 7-(2,6-dimethoxyphenyl)-1-((2-phenylpyridin-4-yl)methyl)azepan-2-one] | 7 | 58 | – | –
CCc1nc2ccc(OC)c(C3CCCC(=O)N3Cc3cccc(-c4csc(C)n4)c3)c2o1 (centres unmarked) [Example 442, 6-(2-ethyl-6-methoxybenzo[d]oxazol-7-yl)-1-(3-(2-methylthiazol-4-yl)benzyl)piperidin-2-one] | 10 | 33 | – | –
COc1cccc(OC)c1C1CCCCC(=O)N1Cc1cccc(N2CCCC2)c1 (centres unmarked) [Example 93, 7-(2,6-dimethoxyphenyl)-1-(3-(pyrrolidin-1-yl)benzyl)azepan-2-one] | 3 | 16 | – | –
COc1cccc(OC)c1C1CCCCC(=O)N1Cc1ccc2oc3ccccc3c2c1 (centres unmarked) [Example 90, 1-(dibenzo[b,d]furan-2-ylmethyl)-7-(2,6-dimethoxyphenyl)azepan-2-one] | 1 | 3 | – | –
COc1cccc(OC)c1C1CCCCC(=O)N1Cc1cnc(OC(F)F)c(Cl)c1 (centres unmarked) [Example 89, 1-((5-chloro-6-(difluoromethoxy)pyridin-3-yl)methyl)-7-(2,6-dimethoxyphenyl)azepan-2-one] | 385 | 85 | – | –

SMILES | IC50 ([1]; compound incubation 120 min) [nM] | IC50 ([2]; compound incubation 120 min) [nM] | IC50 [1, 3] [nM] | IC50 [2, 3] [nM]
O=C1CCCC(c2ccccc2OC(F)(F)F)N1Cc1ccc(OC(F)(F)F)cc1 (centres unmarked) [Example 252, 1-(4-(trifluoromethoxy)benzyl)-6-(2-(trifluoromethoxy)phenyl)piperidin-2-one] | – | – | 9370 | 2660
COc1ccnc(OC)c1C1CCCC(=O)N1Cc1cccc(-c2csc(C)n2)c1 (centres unmarked) [Example 54, 6-(2,4-dimethoxypyridin-3-yl)-1-(3-(2-methylthiazol-4-yl)benzyl)piperidin-2-one] | 15 | 13 | – | –
COc1cccc(OC)c1C1CCCC(=O)N1Cc1cccc(-c2ccccn2)c1 (centres unmarked) [Example 10, 6-(2,6-dimethoxyphenyl)-1-(3-(pyridin-2-yl)benzyl)piperidin-2-one] | 9 | 8 | – | –
COc1cc(OC)c(C2CCC(=O)N2Cc2ccc(OC(F)(F)F)cc2)c(OC)c1 (centres unmarked) [Example 108, 1-(4-(trifluoromethoxy)benzyl)-5-(2,4,6-trimethoxyphenyl)pyrrolidin-2-one] | – | – | 1930 | 271
CC[C@H]1C[C@@H](c2c(OC)cccc2OC)N(Cc2ccc(OC(F)(F)F)cc2)C1=O (racemic) [Example 263, rac-(3S*,5S*)-5-(2,6-dimethoxyphenyl)-3-ethyl-1-(4-(trifluoromethoxy)benzyl)pyrrolidin-2-one] | – | – | 619 | 3610
COc1cccc(OC)c1C1CCCC(=O)N1Cc1ccc(-n2cccc2)cc1 (centres unmarked) [Example 169, 1-(4-(1H-pyrrol-1-yl)benzyl)-6-(2,6-dimethoxyphenyl)piperidin-2-one] | – | – | 1590 | 190
COc1cccc(OC)c1C1CCCC(=O)N1Cc1ccnc(N2CCCC2)c1 (centres unmarked) [Example 34, 6-(2,6-dimethoxyphenyl)-1-((2-(pyrrolidin-1-yl)pyridin-4-yl)methyl)piperidin-2-one] | 1050 | 2060 | – | –
COc1ccc2ccccc2c1C1CCCC(=O)N1Cc1cccc(Oc2ccccc2)c1 (centres unmarked) [Example 447, 6-(2-methoxynaphthalen-1-yl)-1-(3-phenoxybenzyl)piperidin-2-one] | 112 | 92 | – | –
O=C1CCC(c2ccccc2-c2ccccc2)N1Cc1csc(-c2ccccc2)n1 (centres unmarked) [Example 288, 5-([1,1′-biphenyl]-2-yl)-1-((2-phenylthiazol-4-yl)methyl)pyrrolidin-2-one] | 825 | 1370 | – | –
COc1ccc2ncoc2c1C1CCCC(=O)N1Cc1ccc2ccccc2n1 (centres unmarked) [Example 280, 6-(6-methoxybenzo[d]oxazol-7-yl)-1-(quinolin-2-ylmethyl)piperidin-2-one] | 1820 | 1800 | – | –
CCOc1ccccc1C1CCC(=O)N1Cc1ccc(OC(F)(F)F)cc1 (centres unmarked) [Example 195, 5-(2-ethoxyphenyl)-1-(4-(trifluoromethoxy)benzyl)pyrrolidin-2-one] | – | – | 821 | 240
COc1cccc(OC)c1C1CC(C)C(=O)N1Cc1ccc2ccccc2n1 (centres unmarked) [Example 348, 5-(2,6-dimethoxyphenyl)-3-methyl-1-(quinolin-2-ylmethyl)pyrrolidin-2-one] | 206 | 474 | – | –
COc1cccc(OC)c1C1CC(C)C(=O)N1Cc1cccc(-c2ncccn2)c1 (centres unmarked) [Example 142, 5-(2,6-dimethoxyphenyl)-3-methyl-1-(3-(pyrimidin-2-yl)benzyl)pyrrolidin-2-one] | 11 | 40 | – | –
COc1cccc(F)c1C1CC(C)C(=O)N1Cc1ccnc(-c2nc(C)cs2)c1 (centres unmarked) [Example 366, 5-(2-fluoro-6-methoxyphenyl)-3-methyl-1-((2-(4-methylthiazol-2-yl)pyridin-4-yl)methyl)pyrrolidin-2-one] | 158 | 8 | – | –
COc1cccc(OC)c1C1CC(C)C(=O)N1Cc1ccc(SC(F)(F)F)cc1 (centres unmarked) [Example 398, 5-(2,6-dimethoxyphenyl)-3-methyl-1-(4-((trifluoromethyl)thio)benzyl)pyrrolidin-2-one] | 277 | 428 | – | –
CCOc1cccc(F)c1[C@@H]1C[C@H](Cl)C(=O)N1Cc1ccc(OC(F)(F)F)cc1 (racemic) [Example 343, rac-(3S*,5S*)-3-chloro-5-(2-ethoxy-6-fluorophenyl)-1-(4-(trifluoromethoxy)benzyl)pyrrolidin-2-one] | 603 | 15 | – | –
COc1cccc(OC)c1C1CC(C)C(=O)N1Cc1ccc(OC(F)F)c(Cl)c1 (centres unmarked) [Example 401, 1-(3-chloro-4-(difluoromethoxy)benzyl)-5-(2,6-dimethoxyphenyl)-3-methylpyrrolidin-2-one] | 164 | 155 | – | –
COc1cccc(OC)c1C1CCCC(=O)N1Cc1ccc2c(c1)c1ccccc1n2C (centres unmarked) [Example 32, 6-(2,6-dimethoxyphenyl)-1-((9-methyl-9H-carbazol-3-yl)methyl)piperidin-2-one] | 50 | 132 | – | –
